Results published in patent publication US20260166128A1, “HUMAN AMYLIN ANALOG, AND DERIVATIVE THEREOF AND USE THEREOF” (priority 2022, published 2026).
Numbered stars: 1 amine (or outer) side, 2 acyl side, 3 side chain; on linkers, the order of the positions; unused ones are H or OH. Bridge positions count the residues as written; N and C are the ends. Square brackets hold non-standard residues; d marks the D form. Side chains are listed from the residue outwards. Peptide text beside a SMILES is read from it. * marks the point of attachment. C20 diacid = O=C(O)CCCCCCCCCCCCCCCCCCC(=O)*; C18 diacid = O=C(O)CCCCCCCCCCCCCCCCC(=O)*; γGlu = O=C(O)[C@H](CCC(=O)[*:2])N[*:1]; Hyp = O=C(O)[C@@H]1C[C@@H](O)CN1; AEEA = NCCOCCOCC(=O)O

Biological target: T1, human amylin receptor (Homo sapiens, UniProt O60896+P30988)
T1 construct: host or cells: CHO-K1/Ga15/AMY3 cells, further stably transfected with a CRE-luciferase plasmid
T1 sequence (P30988 25-474): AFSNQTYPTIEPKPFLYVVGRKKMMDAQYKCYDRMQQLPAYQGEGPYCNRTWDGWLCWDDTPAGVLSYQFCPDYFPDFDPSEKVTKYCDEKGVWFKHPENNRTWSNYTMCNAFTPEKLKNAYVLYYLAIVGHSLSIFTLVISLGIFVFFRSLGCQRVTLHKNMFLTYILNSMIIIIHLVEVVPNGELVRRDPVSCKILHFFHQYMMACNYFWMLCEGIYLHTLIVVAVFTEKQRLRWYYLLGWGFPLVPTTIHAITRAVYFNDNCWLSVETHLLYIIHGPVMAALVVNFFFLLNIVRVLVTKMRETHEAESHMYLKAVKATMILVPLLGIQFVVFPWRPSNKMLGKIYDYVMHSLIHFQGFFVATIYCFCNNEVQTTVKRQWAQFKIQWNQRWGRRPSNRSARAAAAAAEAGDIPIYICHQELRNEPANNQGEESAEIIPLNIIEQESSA
T1 sequence (O60896 24-148 partner): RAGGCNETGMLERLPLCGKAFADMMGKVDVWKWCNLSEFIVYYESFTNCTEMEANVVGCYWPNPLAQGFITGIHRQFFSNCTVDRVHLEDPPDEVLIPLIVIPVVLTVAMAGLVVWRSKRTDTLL
Assay: Luciferase assay of amylin derivatives in amylin receptor/CRE-luc CHO cell line
Type: cell-based
Conditions: CHO-K1/Ga15/AMY3 CRE-luc cells, 24 hours incubation, F12 medium containing 10% FBS; read-out: EC50
Method: The experiment was intended to detect the activity or efficacy of the amylin derivatives on a human amylin receptor in vitro by luciferase assay.
50 μL of growth medium (F12 medium containing 10% FBS) was added into each well of a white 96-well plate, and the stably transfected amylin/CRE-lue CHO cells were inoculated into the white 96-well plate at a density of about 20,000 cells/well for activity determination.

`CC[C@H](C)[C@H](NC(=O)[C@@H]1CCCN1C(=O)CNC(=O)[C@H](CC(C)C)NC(=O)[C@H](CC(N)=O)NC(=O)[C@H](CC(N)=O)NC(=O)[C@H](CO)NC(=O)[C@H](CO)NC(=O)[C@H](Cc1c[nH]cn1)NC(=O)[C@H](CCCNC(=N)N)NC(=O)[C@H](CC(C)C)NC(=O)[C@H](Cc1ccccc1)NC(=O)[C@H](CC(=O)O)NC(=O)[C@H](C)NC(=O)[C@H](CC(C)C)NC(=O)[C@H](CCCNC(=N)N)NC(=O)[C@H](CCC(N)=O)NC(=O)[C@@H](NC(=O)[C@H](C)NC(=O)[C@@H]1CSSC[C@H](NC(=O)[C@H](CCCCN)NC(=O)COCCOCCNC(=O)CC[C@H](NC(=O)CCCCCCCCCCCCCCCCCCC(=O)O)C(=O)O)C(=O)N[C@@H](CC(N)=O)C(=O)N[C@@H]([C@@H](C)O)C(=O)N[C@@H](C)C(=O)N[C@@H]([C@@H](C)O)C(=O)N1)[C@@H](C)O)C(=O)N[C@@H](CC(C)C)C(=O)N1CCC[C@H]1C(=O)N1CCC[C@H]1C(=O)N[C@H](C(=O)N[C@@H](CC(N)=O)C(=O)N[C@H](C(=O)NCC(=O)N[C@@H](CO)C(=O)N[C@@H](CC(N)=O)C(=O)N[C@H](C(=O)N1C[C@H](O)C[C@H]1C(N)=O)[C@@H](C)O)C(C)C)[C@@H](C)O` [PD122] ({C20 diacid-γGlu-AEEA}-KCNTATCATQRLADFLRHSSNNLGPILPPTNVGSNT[Hyp]-NH2; disulfide 2-7) gave an EC50 of 0.048 nM.
`CC[C@H](C)[C@H](NC(=O)[C@@H]1CCCN1C(=O)CNC(=O)[C@H](Cc1ccccc1)NC(=O)[C@H](CC(N)=O)NC(=O)[C@H](CC(N)=O)NC(=O)[C@H](CO)NC(=O)[C@H](CO)NC(=O)[C@H](Cc1c[nH]cn1)NC(=O)[C@H](CCCNC(=N)N)NC(=O)[C@H](CC(C)C)NC(=O)[C@H](Cc1ccccc1)NC(=O)[C@H](CC(=O)O)NC(=O)[C@H](C)NC(=O)[C@H](CC(C)C)NC(=O)[C@H](CCCNC(=N)N)NC(=O)[C@H](CCC(N)=O)NC(=O)[C@@H](NC(=O)[C@H](C)NC(=O)[C@@H]1CSSC[C@H](NC(=O)[C@@H](N)CCCCNC(=O)CC[C@H](NC(=O)CCCCCCCCCCCCCCCCCCC(=O)O)C(=O)O)C(=O)N[C@@H](CC(N)=O)C(=O)N[C@@H]([C@@H](C)O)C(=O)N[C@@H](C)C(=O)N[C@@H]([C@@H](C)O)C(=O)N1)[C@@H](C)O)C(=O)N[C@@H](CC(C)C)C(=O)N1CCC[C@H]1C(=O)N1CCC[C@H]1C(=O)N[C@H](C(=O)N[C@@H](CC(N)=O)C(=O)N[C@H](C(=O)NCC(=O)N[C@@H](CO)C(=O)N[C@@H](CC(N)=O)C(=O)N[C@H](C(=O)N1C[C@H](O)C[C@H]1C(N)=O)[C@@H](C)O)C(C)C)[C@@H](C)O` [PD068] (H-K([γGlu-C20 diacid])CNTATCATQRLADFLRHSSNNFGPILPPTNVGSNT[Hyp]-NH2; disulfide 2-7) was tested, and the EC50 was 0.032 nM.
`CC[C@H](C)[C@H](NC(=O)[C@@H]1CCCN1C(=O)CNC(=O)[C@H](CC(C)C)NC(=O)[C@H](CCCCNC(=O)COCCOCCNC(=O)CC[C@H](NC(=O)CCCCCCCCCCCCCCCCC(=O)O)C(=O)O)NC(=O)[C@H](CC(N)=O)NC(=O)[C@H](CO)NC(=O)[C@H](CO)NC(=O)[C@H](Cc1c[nH]cn1)NC(=O)[C@H](CCCNC(=N)N)NC(=O)[C@H](CC(C)C)NC(=O)[C@H](Cc1ccccc1)NC(=O)[C@H](CC(=O)O)NC(=O)[C@H](C)NC(=O)[C@H](CC(C)C)NC(=O)[C@H](CCCNC(=N)N)NC(=O)[C@H](CCC(N)=O)NC(=O)[C@@H](NC(=O)[C@H](C)NC(=O)[C@@H]1CSSC[C@H](NC(=O)[C@@H](N)CCCNC(=N)N)C(=O)N[C@@H](CC(N)=O)C(=O)N[C@@H]([C@@H](C)O)C(=O)N[C@@H](C)C(=O)N[C@@H]([C@@H](C)O)C(=O)N1)[C@@H](C)O)C(=O)N[C@@H](CC(C)C)C(=O)N1CCC[C@H]1C(=O)N1CCC[C@H]1C(=O)N[C@H](C(=O)N[C@@H](CC(N)=O)C(=O)N[C@H](C(=O)NCC(=O)N[C@@H](CO)C(=O)N[C@@H](CC(N)=O)C(=O)N[C@H](C(=O)N1C[C@H](O)C[C@H]1C(N)=O)[C@@H](C)O)C(C)C)[C@@H](C)O` [PD113] (H-RCNTATCATQRLADFLRHSSNK([AEEA-γGlu-C18 diacid])LGPILPPTNVGSNT[Hyp]-NH2; disulfide 2-7) was tested, and the EC50 was 0.017 nM.
Compound `CC[C@H](C)[C@H](NC(=O)[C@@H]1CCCN1C(=O)[C@H](CCCCNC(=O)CC[C@H](NC(=O)CCCCCCCCCCCCCCCCCCC(=O)O)C(=O)O)NC(=O)[C@H](CC(C)C)NC(=O)[C@H](CC(N)=O)NC(=O)[C@H](CC(N)=O)NC(=O)[C@H](CO)NC(=O)[C@H](CO)NC(=O)[C@H](Cc1c[nH]cn1)NC(=O)[C@H](CCCNC(=N)N)NC(=O)[C@H](CC(C)C)NC(=O)[C@H](Cc1ccccc1)NC(=O)[C@H](CC(=O)O)NC(=O)[C@H](C)NC(=O)[C@H](CC(C)C)NC(=O)[C@H](CCCNC(=N)N)NC(=O)[C@H](CCC(N)=O)NC(=O)[C@@H](NC(=O)[C@H](C)NC(=O)[C@@H]1CSSC[C@H](NC(=O)[C@@H](N)CCCCN)C(=O)N[C@@H](CC(N)=O)C(=O)N[C@@H]([C@@H](C)O)C(=O)N[C@@H](C)C(=O)N[C@@H]([C@@H](C)O)C(=O)N1)[C@@H](C)O)C(=O)N[C@@H](CC(C)C)C(=O)N1CCC[C@H]1C(=O)N1CCC[C@H]1C(=O)N[C@H](C(=O)N[C@@H](CC(N)=O)C(=O)N[C@H](C(=O)NCC(=O)N[C@@H](CO)C(=O)N[C@@H](CC(N)=O)C(=O)N[C@H](C(=O)N1C[C@H](O)C[C@H]1C(N)=O)[C@@H](C)O)C(C)C)[C@@H](C)O` [PD076] (H-KCNTATCATQRLADFLRHSSNNLK([γGlu-C20 diacid])PILPPTNVGSNT[Hyp]-NH2; disulfide 2-7) has an EC50 of 0.04 nM.
`CC[C@H](C)[C@H](NC(=O)[C@@H]1CCCN1C(=O)[C@H](CC(=O)O)NC(=O)[C@H](CC(C)C)NC(=O)[C@H](CC(N)=O)NC(=O)[C@H](CC(N)=O)NC(=O)[C@H](CO)NC(=O)[C@H](CO)NC(=O)[C@H](Cc1c[nH]cn1)NC(=O)[C@H](CCCNC(=N)N)NC(=O)[C@H](CC(C)C)NC(=O)[C@H](Cc1ccccc1)NC(=O)[C@H](CC(=O)O)NC(=O)[C@H](C)NC(=O)[C@H](CC(C)C)NC(=O)[C@H](CCCNC(=N)N)NC(=O)[C@H](CCC(N)=O)NC(=O)[C@@H](NC(=O)[C@H](C)NC(=O)[C@@H]1CSSC[C@H](NC(=O)[C@H](CCCCN)NC(=O)CC[C@H](NC(=O)CCCCCCCCCCCCCCCCCCC(=O)O)C(=O)O)C(=O)N[C@@H](CC(N)=O)C(=O)N[C@@H]([C@@H](C)O)C(=O)N[C@@H](C)C(=O)N[C@@H]([C@@H](C)O)C(=O)N1)[C@@H](C)O)C(=O)N[C@@H](CC(C)C)C(=O)N1CCC[C@H]1C(=O)N1CCC[C@H]1C(=O)N[C@H](C(=O)N[C@@H](CC(N)=O)C(=O)N[C@H](C(=O)NCC(=O)N[C@@H](CO)C(=O)N[C@@H](CC(N)=O)C(=O)N[C@H](C(=O)N1CCC[C@H]1C(N)=O)[C@@H](C)O)C(C)C)[C@@H](C)O` [PD164] ({C20 diacid-γGlu}-KCNTATCATQRLADFLRHSSNNLDPILPPTNVGSNTP-NH2; disulfide 2-7 (inferred)) was tested, and the EC50 was 0.111 nM.
`CC[C@H](C)[C@H](NC(=O)[C@@H]1CCCN1C(=O)[C@H](CCCCNC(=O)CC[C@H](NC(=O)CCCCCCCCCCCCCCCCC(=O)O)C(=O)O)NC(=O)[C@H](CC(C)C)NC(=O)[C@H](CC(N)=O)NC(=O)[C@H](CC(N)=O)NC(=O)[C@H](CO)NC(=O)[C@H](CO)NC(=O)[C@H](Cc1c[nH]cn1)NC(=O)[C@H](CCCNC(=N)N)NC(=O)[C@H](CC(C)C)NC(=O)[C@H](Cc1ccccc1)NC(=O)[C@H](CC(=O)O)NC(=O)[C@H](C)NC(=O)[C@H](CC(C)C)NC(=O)[C@H](CCCNC(=N)N)NC(=O)[C@H](CCC(N)=O)NC(=O)[C@@H](NC(=O)[C@H](C)NC(=O)[C@@H]1CSSC[C@H](NC(=O)[C@@H](N)CCCNC(=N)N)C(=O)N[C@@H](CC(N)=O)C(=O)N[C@@H]([C@@H](C)O)C(=O)N[C@@H](C)C(=O)N[C@@H]([C@@H](C)O)C(=O)N1)[C@@H](C)O)C(=O)N[C@@H](CC(C)C)C(=O)N1CCC[C@H]1C(=O)N1CCC[C@H]1C(=O)N[C@H](C(=O)N[C@@H](CC(N)=O)C(=O)N[C@H](C(=O)NCC(=O)N[C@@H](CO)C(=O)N[C@@H](CC(N)=O)C(=O)N[C@H](C(=O)N1C[C@H](O)C[C@H]1C(N)=O)[C@@H](C)O)C(C)C)[C@@H](C)O` [PD107] (H-RCNTATCATQRLADFLRHSSNNLK([γGlu-C18 diacid])PILPPTNVGSNT[Hyp]-NH2; disulfide 2-7) gave an EC50 of 0.027 nM.
In the case of `CC[C@H](C)[C@H](NC(=O)[C@@H]1CCCN1C(=O)[C@H](CO)NC(=O)[C@H](CC(C)C)NC(=O)[C@H](CC(N)=O)NC(=O)[C@H](CC(N)=O)NC(=O)[C@H](CO)NC(=O)[C@H](CO)NC(=O)[C@H](Cc1c[nH]cn1)NC(=O)[C@H](CCCNC(=N)N)NC(=O)[C@H](CC(C)C)NC(=O)[C@H](Cc1ccccc1)NC(=O)[C@H](CC(=O)O)NC(=O)[C@H](C)NC(=O)[C@H](CC(C)C)NC(=O)[C@H](CCCNC(=N)N)NC(=O)[C@H](CCC(N)=O)NC(=O)[C@@H](NC(=O)[C@H](C)NC(=O)[C@@H]1CSSC[C@H](NC(=O)[C@H](CCCCN)NC(=O)CC[C@H](NC(=O)CCCCCCCCCCCCCCCCCCC(=O)O)C(=O)O)C(=O)N[C@@H](CC(N)=O)C(=O)N[C@@H]([C@@H](C)O)C(=O)N[C@@H](C)C(=O)N[C@@H]([C@@H](C)O)C(=O)N1)[C@@H](C)O)C(=O)N[C@@H](CC(C)C)C(=O)N1CCC[C@H]1C(=O)N1CCC[C@H]1C(=O)N[C@H](C(=O)N[C@@H](CC(N)=O)C(=O)N[C@H](C(=O)NCC(=O)N[C@@H](CO)C(=O)N[C@@H](CC(N)=O)C(=O)N[C@H](C(=O)N1CCC[C@H]1C(N)=O)[C@@H](C)O)C(C)C)[C@@H](C)O` [PD166] ({C20 diacid-γGlu}-KCNTATCATQRLADFLRHSSNNLSPILPPTNVGSNTP-NH2; disulfide 2-7 (inferred)), the EC50 is reported as 0.054 nM.
